{"source": "patent US6783949B1", "about": "“Processes for determining whether a test substance contains lipases or lipase inhibitors” (Aventis Pharma Deutschland GmbH, priority 1999, dated 2004)", "molecular_target": "T1, HSL (Rattus norvegicus, UniProt P15304)", "T1 construct": "The partially purified HSL can be stored at −70° C. for 4 to 6 weeks; from tissue; host or cells: rat epididymal fat cells (male Wistar rats)", "T1 sequence (P15304 1-768 isoform P15304-2)": "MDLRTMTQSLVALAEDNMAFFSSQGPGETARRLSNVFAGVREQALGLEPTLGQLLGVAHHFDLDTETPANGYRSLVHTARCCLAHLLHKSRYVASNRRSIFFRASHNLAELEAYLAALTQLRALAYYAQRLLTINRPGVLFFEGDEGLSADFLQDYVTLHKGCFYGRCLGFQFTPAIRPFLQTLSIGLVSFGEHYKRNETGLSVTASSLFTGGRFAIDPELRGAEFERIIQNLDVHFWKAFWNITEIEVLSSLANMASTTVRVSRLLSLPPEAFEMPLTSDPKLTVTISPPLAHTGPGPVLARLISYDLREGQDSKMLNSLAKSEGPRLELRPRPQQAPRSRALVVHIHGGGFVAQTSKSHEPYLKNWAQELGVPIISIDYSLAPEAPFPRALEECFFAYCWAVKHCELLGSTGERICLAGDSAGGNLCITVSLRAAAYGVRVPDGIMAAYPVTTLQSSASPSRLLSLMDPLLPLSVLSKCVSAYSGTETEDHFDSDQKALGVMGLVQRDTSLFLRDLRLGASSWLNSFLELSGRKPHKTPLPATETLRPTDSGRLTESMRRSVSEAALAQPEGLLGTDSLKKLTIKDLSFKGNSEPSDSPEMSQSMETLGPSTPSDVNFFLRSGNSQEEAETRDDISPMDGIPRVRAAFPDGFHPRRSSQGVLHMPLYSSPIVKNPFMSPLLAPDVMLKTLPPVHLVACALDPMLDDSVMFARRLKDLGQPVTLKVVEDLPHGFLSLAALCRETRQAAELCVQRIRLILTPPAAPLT", "assay": "Indirect NAG assay (extinction increase at 481 nm)", "type": "biochemical", "description": "A typical reaction is carried out at 30° C. for 60 min, for example in 1.5 ml Eppendorf vessels or 96-hole plates. […] 180 μl of the substrate solution (20 μg/ml of phosphatidylcholine, 10 μg/ml of phosphatidylinositol, 50 μg/ml of NAG in assay buffer) are added. After a preincubation for 15 min at 30° C., 20 μl of HSL in assay buffer are pipetted in and the extinction is immediately measured (see above) at 481 nm in a cuvette photometer (0.5 ml cuvette) or microtiter plate reader. After a certain incubation time, which is variable and depends on the chosen enzyme concentration and can be between 2 and 240 minutes, in this case incubation at 30° C. for 60 min, the extinction is measured again. The increase in the extinction in the yellow region, in this case at 481 nm, is a measure of the enzyme activity.\nIsolated rat fat cells are obtained from epididymal fatty tissue from untreated male rats (Wistar, 220-250 g) by collagenase treatment according to published processes. The fat cells from 10 rats are washed three times by flotation with 50 ml each of homogenization buffer ([…], pH 7.4, 0.25 M sucrose, 1 mM ethylenediamine-N,N,N′,N′-tetraacetic acid (EDTA), 1 mM dithiothreitol (DTT), 10 μg/ml of leupeptin, 10 μg/ml of antipain, 20 μg/ml of pepstatin) and finally taken up in 10 ml of homogenization buffer. The fat cells are homogenized in a Teflon-in-glass homogenizer (Braun-Melsungen) by 10 strokes at 1500 rpm and 15° C. The homogenizate is centrifuged (Sorvall SM24 tubes, 5000 rpm, 10 min, 4° C.). The […] between the overlying fatty layer and the pellet is removed and the centrifugation is repeated. The […] resulting from this is centrifuged again (Sorvall SM24 tubes, 20,000 rpm, 45 min, 4° C.). […] After incubation for 60 min at 4° C. (shake at intervals of 15 min), the batch is centrifuged (Sorvall SM24 tubes, 3000 rpm, 10 min, 4° C.). The supernatant is brought to pH 5.2 by addition of glacial acetic acid and incubated at 4° C. for 30 min. […] The suspension is dialyzed overnight at 4° C. against 25 mM TRIS/HCl, pH 7.4, 50% glycerol, 1 mM DTT, and 10 μg/ml of leupeptin, pepstatin, and antipain and then applied to a hydroxylapatite column (0.1 g per 1 ml of suspension, equilibrated with 10 mM potassium phosphate, pH 7.0, 30% glycerol, 1 mM DTT). The column is washed with four volumes of equilibration buffer at a flow rate of 20 to 30 ml/h. The HSL is eluted with a volume of equilibration buffer which contains 0.5 M potassium phosphate, then dialyzed (see above) and concentrated 5 to 10 times by ultrafiltration (Amicon Diaflo PM 10 filter) at 4° C. The partially purified HSL can be stored at −70° C. for 4 to 6 weeks.\n6 mg of phosphatidylcholine and 6 mg of phosphatidylinositol are dissolved in 1 ml of chloroform each. 10 mg of NAG are dissolved in 1 ml of chloroform. […] The chloroform (225 μl total volume) is completely removed by overblowing with a stream of N2. The dried substrate can be stored at 4° C. for up to three days. For the preparation of the phospholipid vesicles/micelles having intercalated NAG (on the test day), the dried substrate is taken up in 20 ml of assay buffer (25 mM TRIS/HCl, pH 7.4; 150 mM NaCl) and two ultrasonic treatments with an ultrasonic probe (Branson Sonifier type 11, standard microtip): 1st treatment setting 2, 2×1 min, in between in each case 1 min on ice; 2nd treatment setting 4, 2×1 min, in between in each case 1 min on ice. […] Before use as a substrate (within the next 2 h), the solution is additionally incubated on ice for 15 min.\nThe assay is carried out at 30° C. for 60 min in 1.5 ml Eppendorf vessels or 96-hole plates.", "note": "Where “and” joins values, the source holds several entries; their conditions need not be identical. Identical values can stand only once.", "data": [{"smiles": "O=C(CCCCCCCCCCCNc1ccc([N+](=O)[O-])c2nonc12)OCC(O)CO", "note": "(racemic) [Compound 3]", "values": [{"measurement": "IC50", "result": "1520 nM and 2140 nM"}]}]}
